Data reported in patent US7691818B2, “Peptidomimetic inhibitors of retroviral proteases and their use as antivirals” (Universita' Degli Studi Di Treiste, priority 2004, dated 2010).

Biological target: HIV-1 recombinant protease (Human immunodeficiency virus type 1 group M subtype B, UniProt P04585)
Test: biochemical
Experimental: Inhibitory activity was measured in accordance with the method described by A. Tossi et al. (Eur. J. Biochem., 2000, 267, 1715) using an HIV-1 recombinant protease supplied by Bioczech (Prague, CZ) and the fluorogenic substrate Abz-Thr-Ile-Nle-Phe(p-NO2)-Gln-Arg-NH2 (abbreviated hereinafter as Abz-NF*-6) supplied by Bachem (Bubendorf, CH). Specifically, 189 μL of a 30 μM solution of Abz-NF*-6 in a 100 mM MES-NaOH buffer (pH 5.5) containing NaCl (400 mM), EDTA (1 mM), DTT (1 mM) and BSA (1 mg/mL) are incubated at 25° C. in a cuvette placed directly in the spectrofluorimeter, irradiated at 325 mn and checking that there is no increase of emission at 420 nm due to the spontaneous hydrolysis of the substrate. After 1.5 minutes 11 μL of a standard solution of HIV-PR (0.4 mg/mL) in the same buffer are added and the variation in fluorescence, due to catalysed hydrolysis of the Abz-NF*-6 substrate, is recorded for 1 minute. 2 μL of the inhibitor solution in DMSO or MES buffer are then added and the variation in fluorescence over time due to hydrolysis of the Abz-NF*-6 substrate in the presence of the specific inhibitor is recorded.

Which IC50 does the source give for `Cc1cccc(C)c1OCC(=O)N[C@@H](Cc1ccccc1)[C@H](O)[C@@H](O)[C@@H]1CCCN1C(=O)COc1ccccc1` [(25), DmPoa-Phe-[φ]-Pro-Poa] here?
The IC50 was 84.7 nM.

For `Cc1cccc(C)c1OCC(=O)N[C@@H](Cc1ccccc1)[C@H](O)[C@@H](O)[C@@H]1CCCN1C(=O)COc1c(C)cccc1C` [(23), DmPoa-Phe-[φ]-Pro-DmPoa], which IC50 is on record?
Its IC50 is 9.6 nM.

With `CC(=O)NC(Cc1c[nH]c2ccccc12)C(=O)NC(C(=O)N1CCC[C@H]1[C@H](O)[C@@H](O)[C@H](Cc1ccccc1)NC(=O)COc1c(C)cccc1C)C(C)C` (stereo partly drawn) [(24), DmPoa-Phe-[φ]-Pro-Val-Trp-NH-Ac] as the compound, how does the IC50 read?
Its IC50 is 75.3 nM.

`CCC(C)C(NC(=O)C(NC(C)=O)C(C)C)C(=O)N1CCC[C@H]1[C@H](O)[C@@H](O)[C@H](Cc1ccccc1)NC(=O)C(CC(N)=O)NC(=O)C(CC(C)C)NC(=O)C(CO)NC(C)=O` (stereo partly drawn) [(21), NH-Ac-Ser-Leu-Asn-Phe-[φ]-Pro-Ile-Val-NH-Ac] was tested. Which IC50 did it give?
The IC50 was 0.61 nM.

`CC(=O)N[C@@H](Cc1c[nH]c2ccccc12)C(=O)N[C@H](C(=O)N[C@@H](Cc1ccccc1)[C@H](O)[C@@H](O)[C@@H]1CCCN1C(=O)[C@@H](NC(=O)[C@H](Cc1c[nH]c2ccccc12)NC(C)=O)C(C)C)C(C)C` [(22), NH-Ac-Trp-Val-Phe-[φ]-Pro-Val-Trp-NH-Ac] was tested. Which IC50 did it give?
The IC50 was 0.06 nM.
